Values quoted from earlier work in patent US11596693B2, “Antibody-drug conjugates and uses thereof” (priority 2019, dated 2023).
Square brackets hold non-standard residues; d marks the D form. Peptide text beside a SMILES is read from it. * marks the point of attachment. Dolaproine = CO[C@@H]([C@@H]1CCCN1)[C@@H](C)C(=O)O; Dil = CC[C@H](C)[C@H](NC)[C@@H](CC(=O)O)OC; X1 = C[C@@H](N*)[C@@H](O)c1ccccc1; NMeV = CN[C@H](C(=O)O)C(C)C

Columns and labels:
[1] = test system: many cells; details: for many cells
[2] = test system: human-derived cancer cell lines; details: read-out: median inhibitory concentration

Row | Compound | IC50 [1] [nM] | IC50 [2] [nM]
1 | COc1cc2cc(c1Cl)N(C)C(=O)CC(OC(=O)[C@H](C)N(C)C(=O)CCS)C1(C)OC1C(C)C1CC(O)(NC(=O)O1)C(OC)/C=C/C=C(\C)C2 (stereo partly shown) [DM1] | ~0.01 | 
2 | COc1cc2cc(c1Cl)N(C)C(=O)CC(OC(=O)[C@H](C)N(C)C(=O)CCC(C)(C)S)C1(C)OC1C(C)C1CC(O)(NC(=O)O1)C(OC)/C=C/C=C(\C)C2 (stereo partly shown) [DM4] | ~0.001 | 
3 | COc1cccc2c1C(=O)c1c(O)c3c(c(O)c1C2=O)C[C@@](O)(C(=O)CO)C[C@@H]3O[C@H]1C[C@H](N)[C@H](O)[C@H](C)O1 [doxorubicins, Doxorubicin] |  | 100 to 200
4 | CC[C@H](C)[C@@H]([C@@H](CC(=O)N1CCC[C@H]1[C@H](OC)[C@@H](C)C(=O)N[C@H](C)[C@@H](O)c1ccccc1)OC)N(C)C(=O)[C@@H](NC(=O)[C@@H](NC)C(C)C)C(C)C [MMAE, Monomethyl auristatin E] (H-[NMeV]V[Dil][Dolaproine]-X1) | 0.01 to 1 | 
